Assay results: patent US8377931B2, “Benzoxazine derivatives and uses thereof” (Roche Palo Alto LLC, priority 2002, dated 2013)
Structures can show the parent of a compound that is named as a salt.

| SMILES | melting point [°C] |
| --- | --- |
| CS(=O)(=O)Nc1cccc(S(=O)(=O)N2CCOc3c(N4CCNCC4)cccc32)c1 [Compound 20, N-[3-(8-Piperazin-1-yl-2,3-dihydro-benzo[1,4]oxazine-4-sulfonyl)-phenyl]-methanesulfonamide] | 158.5 to 163.5 |
| O=S(=O)(c1ccccc1)N1CCOc2c(N3CCNCC3)cc(Cl)cc21 (as salt: hydrochloride) | 202 to 205 |
| Cc1cc(N2CCNCC2)c2c(c1)N(S(=O)(=O)c1ccc(Cl)cc1)CCO2 (as salt: hydrochloride) | 147.9 to 152.9 |
